The source of these data is patent publication US6316500A, “Aliphatically unsaturated hydroxy benzoates and preservative compositions thereof” (ISP Investments Inc., priority 1999, dated 2001).

The nature of data set [1]: Partition coefficients (log of oil/water solubility).
Text: A greater water partitioning is indicated by a low log value.
Data set [2] relates to E. coli 8739. Nature of the data set: Activity test: preservative challenge test in emulsion, E. coli 8739. The format is cell-based. The note with it: 0.5% preservative in emulsion. How it is done:
(§1) The emulsion was prepared by separately mixing components in phase A and phase B at 75-80° C. for 15 minutes. The phases were then combined and mixed for another 10 minutes and cooled to 45° C. with stirring. Preservative was then added followed by citric acid to adjust pH to from abut 6.5 to 7.5. Stirring of the resulting mixture was continued until a temperature of 30° C. was reached. The activity tests were carried out using the following microorganisms: A. niger, B. cepacia, C. albicans, E. coli, P. aeruginosa and S. aureus. 50 g aliquots of the test emulsion containing various amounts of the preservative admixture as reported in Tables I-V were inoculated with approximately 10^7 -10^8 of the test organisms. The test samples then were stirred to disperse the challenge inoculum. The samples were incubated and assayed at 48 hours, 7, 14, 21 and 28 days. The assays were performed on 1 g, of the test sample by serially diluting 10^3 to 10^6 of the original concentration. The plating medium for bacteria was Letheen agar and for fungi it was low pH Mycophil agar with Tween 20. Each plated sample was incubated for 48 hours at 37° C. for bacteria, 5 days at 25° C. for mold and 3 days at 25° C. for fungi. After incubation, readings of the number of colonies per milliliter (cfu/ml) were made results were determined, as reported in associated Tables IA-VA. At 21 days the test product was reinoculated with half of the original inoculum.

Data set [3] relates to B. cepacia 25416. Nature of the data set: Activity test: preservative challenge test in emulsion, B. cepacia 25416. The data set is classed as cell-based. The conditions noted are these: 0.5% preservative in emulsion. How it is done:
as §1

The subject of data set [4] is A. niger 16404. The data set is described as follows: Activity test: preservative challenge test in emulsion, A. niger 16404. The format is cell-based. The conditions noted are these: 0.5% preservative in emulsion. As for the experimental part: as §1
Data set [5] relates to C. albicans 10231. Nature of the data set: Activity test: preservative challenge test in emulsion, C. albicans 10231. The conditions noted are these: 0.5% preservative in emulsion. The format is cell-based. As for the experimental part:
as §1

In data set [6] the test system is S. aureus 6538. Nature of the data set: Activity test: preservative challenge test in emulsion, S. aureus 6538. The format is cell-based. The conditions noted are these: 0.5% preservative in emulsion. As for the experimental part:
as §1

The subject of data set [7] is P. aeruginosa 9027. The data set is described as follows: Activity test: preservative challenge test in emulsion, P. aeruginosa 9027. The format is cell-based. The conditions noted are these: 0.5% preservative in emulsion. As for the experimental part: as §1
The conditions of data set [8]: about 10 ppm, beer preservative; cited from earlier work.
The mark [9] stands for this setting: 28 days, reinoculated at 21 days.

Consider `CCCCOC(=O)c1ccc(O)cc1` [Parahydroxy butyl benzoate], for which, in data set [1], the “Log P” value is 3.57.

`CCOC(=O)c1ccc(O)cc1` [Parahydroxy ethyl benzoate]: in data set [1], the “Log P” value is 2.47.

Turning to `C#CCOC(=O)c1ccc(O)c(Cl)c1` [Propargyl 3-Chloro-4-Hydroxybenzoate], the “number of colonies per milliliter, 48 hr” value in data set [2] (48 hr) is given as 30 cfu/ml; in data set [3] (48 hr) it was > 10^6 cfu/ml; in data set [4] (48 hr) it was 10000 cfu/ml; in data set [5] (48 hr), 280000 cfu/ml; in data set [6] (48 hr), 9600 cfu/ml; in data set [7] (48 hr) it was below 10 cfu/ml. For the same molecule, the “number of colonies per milliliter, 7 days” value is listed as below 10 cfu/ml in data set [2] (7 days); < 10^6 cfu/ml in data set [3] (7 days); below 10 cfu/ml in data set [4] (7 days); 370 cfu/ml in data set [5] (7 days); below 10 cfu/ml in data set [6] (7 days); below 10 cfu/ml in data set [7] (7 days). Moreover, the “number of colonies per milliliter, 14 days” value in data set [2] (14 days) is below 10 cfu/ml; in data set [3] (14 days), < 10^6 cfu/ml; in data set [4] (14 days), below 10 cfu/ml; in data set [5] (14 days), below 10 cfu/ml; in data set [6] (14 days) it was below 10 cfu/ml; in data set [7] (14 days) it was 80 cfu/ml. Moreover, the “number of colonies per milliliter, 21 days” value is given as below 10 cfu/ml in data set [2] (21 days); < 10^6 cfu/ml in data set [3] (21 days); below 10 cfu/ml in data set [4] (21 days); below 10 cfu/ml in data set [5] (21 days); below 10 cfu/ml in data set [6] (21 days); below 10 cfu/ml in data set [7] (21 days). Besides, the “number of colonies per milliliter, 28 days” value in data set [2] (setting [9]) is below 10 cfu/ml; in data set [3] (setting [9]) it was < 10^6 cfu/ml; in data set [4] (setting [9]) it was below 10 cfu/ml; in data set [5] (setting [9]), below 10 cfu/ml; in data set [6] (setting [9]), below 10 cfu/ml; in data set [7] (setting [9]), below 10 cfu/ml.

As for `CCCCCCCOC(=O)c1ccc(O)cc1` [heptyl p-hydroxybenzoate], the solubility in beer result in data set [8] was “limited solubility in beer so that the beer becomes turbid at about 0 °C”.

What is called Log P is a log measure of how a compound divides between an organic and an aqueous phase.
